Article PMC5933782, “Molecular structures of cdc2-like kinases in complex with a new inhibitor chemotype” (PLoS ONE, 2018)

Experiments:
Test in all cases: NCI cancer cell line screening
Format in all cases: cell-based
NCI-H322M = details: Homo sapiens, Non-Small Cell Lung Cancer
Method: (§1) Being the most promising compound in terms of CLK1 inhibitory potency and selectivity, KuWal151 (8c) was tested in the National Cancer Institute cancer cell line screening on 57 tumor cell lines of different tissue origin [45]. With only a few exceptions, KuWal151 inhibited the growth of most cell lines in submicromolar concentrations. In Table 2 the cancer cell line inhibition data is listed with the expression rates of SPF45 and CLK1 as indicated in the Expression Atlas database (https://www.ebi.ac.uk/gxa/home). Apparently the cell lines with high levels of CLK1 encoding RNA are inhibited over average. […] However, the available data are not sufficient to construe a clear relationship between the expression levels of the putative target CLK1 and sensitivity of the cell lines against 8c. The same holds true for SPF45, an important substrate of CLK1 involved in splicing which is found to be overexpressed in many cancer cell lines. […] The lack of a straight relationship between CLK1 and/or SPF45 expression levels on the one hand and sensitivity against the CLK1 inhibitor 8c on the other hand may have various reasons, e.g. different uptake rates of the inhibitor by the cells or alternative intracellular targets. For verification of the results from the NCI screening, which is based on the in situ fixation of cells followed by staining with the protein-binding dye sulforhodamin B [47, 48], 8c was also tested on two cell lines of the NCI panel (HT-29 and MDA-MB-231) in a crystal violet assay.

U251 = details: Homo sapiens, U-251; U251, CNS Cancer
Method: as §1

K-562 = details: Homo sapiens, K562; K-562, Leukemia
Method: as §1

DU-145 = details: Homo sapiens; DU-145, Prostate Cancer
Method: as §1

RPMI-8226 = details: Homo sapiens; RPMI-8226, Leukemia
Method: as §1

SR = details: Homo sapiens, Leukemia
Method: as §1

MDA-MB-468 = details: Homo sapiens; MDA-MB-468, Breast Cancer
Method: as §1

UO-31 = details: Homo sapiens; UO-31, Renal Cancer
Method: as §1

CCRF-CEM = details: Homo sapiens, Leukemia
Method: as §1

A549/ATCC = details: Homo sapiens, Non-Small Cell Lung Cancer
Method: as §1

NCI/ADR-RES = details: Homo sapiens, Ovarian Cancer
Method: as §1

SN12C = details: Homo sapiens, Renal Cancer
Method: as §1

SK-MEL-2 = details: Homo sapiens; SK-MEL-2, Melanoma
Method: as §1

NCI-H23 = details: Homo sapiens; NCI-H23, Non-Small Cell Lung Cancer
Method: as §1

UACC-62 = details: Homo sapiens; UACC-62, Melanoma
Method: as §1

A498 = details: Homo sapiens; A498, Renal Cancer
Method: as §1

786–0 = details: Homo sapiens; 786–0, Renal Cancer
Method: as §1

PC-3 = details: Homo sapiens; PC-3, Prostate Cancer
Method: as §1

SF-268 = details: Homo sapiens; SF-268, CNS Cancer
Method: as §1

SW-620 = details: Homo sapiens; SW-620, Colon Cancer
Method: as §1

MDA-MB-435 = details: Homo sapiens
Method: as §1

SNB-19 = details: Homo sapiens; SNB-19, CNS Cancer
Method: as §1

SK-OV-3 = details: Homo sapiens; SK-OV-3, Ovarian Cancer
Method: as §1

HS 578T = details: Homo sapiens, Breast Cancer
Method: as §1

HCT-116 = details: Homo sapiens; HCT-116, Colon Cancer
Method: as §1

OVCAR-3 = details: Homo sapiens; OVCAR-3, Ovarian Cancer
Method: as §1

SF-295 = details: Homo sapiens; SF-295, CNS Cancer
Method: as §1

HOP-92 = details: Homo sapiens; HOP-92, Non-Small Cell Lung Cancer
Method: as §1

SK-MEL-28 = details: Homo sapiens; SK-MEL-28, Melanoma
Method: as §1

ACHN = details: Homo sapiens, Renal Cancer
Method: as §1

MDA-MB-231/ATCC = details: Homo sapiens, Breast Cancer
Method: as §1

OVCAR-5 = details: Homo sapiens; OVCAR-5, Ovarian Cancer
Method: as §1

HT29 = details: Homo sapiens, HT-29; HT29, Colon Cancer
Method: as §1

COLO 205 = details: Homo sapiens; COLO 205, Colon Cancer
Method: as §1

OVCAR-8 = details: Homo sapiens; OVCAR-8, Ovarian Cancer
Method: as §1

HCT-15 = details: Homo sapiens; HCT-15, Colon Cancer
Method: as §1

SF-539 = details: Homo sapiens; SF-539, CNS Cancer
Method: as §1

**Q.** For `O=C1NCc2ccc3c(-c4cccc(Cl)c4)c[nH]c3c21` [8c, 3-(3-Chlorophenyl)-6,7-dihydropyrrolo[3,4-g]indol-8(1H)-one], which GI50 (NCI-H322M) is on record?
**A.** 2390 nM

**Q.** And the GI50 (U251)?
**A.** 263 nM

**Q.** And the GI50 (K-562)?
**A.** 162 nM

**Q.** What about the GI50 (DU-145) of the same molecule?
**A.** 316 nM

**Q.** What about the GI50 (RPMI-8226) of the same molecule?
**A.** 288 nM

**Q.** And the GI50 (SR)?
**A.** 151 nM

**Q.** And the GI50 (MDA-MB-468)?
**A.** 234 nM

**Q.** What about the GI50 (UO-31) of the same molecule?
**A.** 832 nM

**Q.** What about the GI50 (CCRF-CEM) of the same molecule?
**A.** 178 nM

**Q.** And the GI50 (A549/ATCC)?
**A.** 389 nM

**Q.** What about the GI50 (NCI/ADR-RES) of the same molecule?
**A.** 178 nM

**Q.** And the GI50 (SN12C)?
**A.** 331 nM

**Q.** And the GI50 (SK-MEL-2)?
**A.** 316 nM

**Q.** And the GI50 (NCI-H23)?
**A.** 525 nM

**Q.** And the GI50 (UACC-62)?
**A.** 275 nM

**Q.** What about the GI50 (A498) of the same molecule?
**A.** 166 nM

**Q.** What about the GI50 (786–0) of the same molecule?
**A.** 275 nM

**Q.** What about the GI50 (PC-3) of the same molecule?
**A.** 339 nM

**Q.** And the GI50 (SF-268)?
**A.** 437 nM

**Q.** And the GI50 (SW-620)?
**A.** 209 nM

**Q.** And the GI50 (MDA-MB-435; MDA-MB-435, MDA-MB-435, Melanoma)?
**A.** 72.4 nM

**Q.** What about the GI50 (MDA-MB-435; MDA-MB-435, MDA-MB-435, as quoted in text) of the same molecule?
**A.** 72 nM

**Q.** What about the GI50 (SNB-19) of the same molecule?
**A.** 389 nM

**Q.** And the GI50 (SK-OV-3)?
**A.** 275 nM

**Q.** What about the GI50 (HS 578T) of the same molecule?
**A.** 204 nM

**Q.** What about the GI50 (HCT-116) of the same molecule?
**A.** 191 nM

**Q.** What about the GI50 (OVCAR-3) of the same molecule?
**A.** 191 nM

**Q.** What about the GI50 (SF-295) of the same molecule?
**A.** 224 nM

**Q.** And the GI50 (HOP-92)?
**A.** 5620 nM

**Q.** And the GI50 (SK-MEL-28)?
**A.** 692 nM

**Q.** And the GI50 (ACHN)?
**A.** 372 nM

**Q.** And the GI50 (MDA-MB-231/ATCC)?
**A.** 1380 nM

**Q.** And the GI50 (OVCAR-5)?
**A.** 1250 nM

**Q.** And the GI50 (HT29)?
**A.** 174 nM

**Q.** And the GI50 (COLO 205)?
**A.** 209 nM

**Q.** What about the GI50 (OVCAR-8) of the same molecule?
**A.** 724 nM

**Q.** What about the GI50 (HCT-15) of the same molecule?
**A.** 178 nM

**Q.** And the GI50 (SF-539)?
**A.** 166 nM
